# According to patent US4999436A, “Aryl-substituted thiophene 3-ols, derivatives and analogs useful as lipoxgenase inhibitors” (Merck & Co., Inc., priority 1989, dated 1991):
# Values joined by “and” are separate entries in the source; they are usually repeats but may differ in a detail not shown here. Identical values can stand only once.
# How the values were obtained:
# cyclooxygenase = target: T1, cyclooxygenase (Ovis aries, UniProt P05979); experiment: RSVM-CO: Ram Seminal Vesicle Microsomal Cyclooxygenase assay; assay type: biochemical; conditions: for inhibition at 0.01 µg/mL: 0.01 μg/ml; for inhibition at 0.1 µg/mL: 0.1 μg/ml; for inhibition at 1 µg/mL: 1 μg/ml
# T1 construct: Ram seminal vesicular glands were trimmed of fat; from tissue; host or cells: ram seminal vesicular glands, microsomal pellet (105K xg)
# T1 sequence (P05979 25-600): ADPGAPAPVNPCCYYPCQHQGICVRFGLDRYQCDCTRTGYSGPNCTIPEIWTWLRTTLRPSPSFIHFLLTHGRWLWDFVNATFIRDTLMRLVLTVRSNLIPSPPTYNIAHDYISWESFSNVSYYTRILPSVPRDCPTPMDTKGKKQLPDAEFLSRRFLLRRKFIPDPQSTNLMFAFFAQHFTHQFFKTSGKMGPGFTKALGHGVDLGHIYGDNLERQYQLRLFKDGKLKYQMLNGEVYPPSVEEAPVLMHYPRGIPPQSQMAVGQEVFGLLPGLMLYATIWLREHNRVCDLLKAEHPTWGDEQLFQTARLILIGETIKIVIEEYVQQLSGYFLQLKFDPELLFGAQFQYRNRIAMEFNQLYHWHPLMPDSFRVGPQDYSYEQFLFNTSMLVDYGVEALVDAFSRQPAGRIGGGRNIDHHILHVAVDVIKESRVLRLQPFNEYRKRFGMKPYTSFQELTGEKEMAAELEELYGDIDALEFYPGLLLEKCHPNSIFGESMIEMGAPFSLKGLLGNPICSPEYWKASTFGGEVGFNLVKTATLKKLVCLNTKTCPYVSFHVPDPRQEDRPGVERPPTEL
# From the text: (§1) Two screening methods were employed for the purposes of evaluating the biological activities of the compounds of the present invention. The PMN5LO assay is a direct measure of the capacity to inhibit 5-lipoxygenase. The second protocol, RSVM-CO, is a method of determining inhibition of cyclooxygenase enzyme activity and as such it serves as a negative control.
# B. Ram Seminal Vesicle Microsomal Cyclooxygenase (RSVM-CO) Assay Protocol
# Ram seminal vesicular glands were trimmed of fat, 50 grams diced into 250 mls ice cold 0.1 M potassium phosphate (pH 7.6) buffer and homogenized using a Brinkman Polytron. The suspension was centrifuged 10 minutes at […] (4° C.) and the supernatant filtered through two cheesecloth layers. The filtrate was centrifuged 160 minutes at 105K xg, the supernatant thereof discarded, and the pellet surface rinsed with a small volume of buffer. The pellets were combined in a small volume, briefly homogenized with the Polytron and frozen in 0.5 ml aliquots at -80° C. The protein concentration was about 50 mg/ml.
# The thawed enzyme was diluted 1:63 with 0.125 M Na EDTA (pH 8.0) containing 50 μg/ml BSA. A substrate-cofactor premix was prepared with 66 μM ^14 C-arachidonic acid (about 20K cpm/12.5 μl) in 500 μl 0.125 M Na EDTA (pH 8.0) plus 10 μl 50 mM hydroquinone and 10 μl 200 mM glutathione. To each sample well in the 96 well plate, agents dissolved in 0.5 μ DMSO were added, followed by 12.5 μl of the diluted enzyme. After a 4 minute preincubation at room temperature, 12.5 μl of the substrate-cofactor mix was added to start the reaction. The reaction was terminated after 20 minutes at room temperature by adding 25 μl of methanol containing 200 μg PGE2 and 400 μg AA per ml.
# The entire reaction mixture was spotted onto a preadsorbent silica gel GF thin layer plate and, after air drying 45 minutes, developed 12 cm in ethyl acetate:glacial acetic acid (99:1).
# The developed lanes were scanned for the distribution of radiolabel using a Bioscan Imaging Detector and the integrated peaks compared to standards and controls yielding % inhibition.
# 5-lipoxygenase = target: T2, 5-lipoxygenase (Rattus norvegicus, UniProt P12527); experiment: PMN5LO assay: inhibition of LTB4 production in A23187-stimulated rat peritoneal PMN (RIA); assay type: cell-based; conditions: for IC50: estimated concentration required for 50% inhibition
# T2 construct: endogenous in cells; host or cells: casein-elicited peritoneal polymorphonuclear leukocytes of male Sprague-Dawley rats
# T2 sequence (P12527 1-673): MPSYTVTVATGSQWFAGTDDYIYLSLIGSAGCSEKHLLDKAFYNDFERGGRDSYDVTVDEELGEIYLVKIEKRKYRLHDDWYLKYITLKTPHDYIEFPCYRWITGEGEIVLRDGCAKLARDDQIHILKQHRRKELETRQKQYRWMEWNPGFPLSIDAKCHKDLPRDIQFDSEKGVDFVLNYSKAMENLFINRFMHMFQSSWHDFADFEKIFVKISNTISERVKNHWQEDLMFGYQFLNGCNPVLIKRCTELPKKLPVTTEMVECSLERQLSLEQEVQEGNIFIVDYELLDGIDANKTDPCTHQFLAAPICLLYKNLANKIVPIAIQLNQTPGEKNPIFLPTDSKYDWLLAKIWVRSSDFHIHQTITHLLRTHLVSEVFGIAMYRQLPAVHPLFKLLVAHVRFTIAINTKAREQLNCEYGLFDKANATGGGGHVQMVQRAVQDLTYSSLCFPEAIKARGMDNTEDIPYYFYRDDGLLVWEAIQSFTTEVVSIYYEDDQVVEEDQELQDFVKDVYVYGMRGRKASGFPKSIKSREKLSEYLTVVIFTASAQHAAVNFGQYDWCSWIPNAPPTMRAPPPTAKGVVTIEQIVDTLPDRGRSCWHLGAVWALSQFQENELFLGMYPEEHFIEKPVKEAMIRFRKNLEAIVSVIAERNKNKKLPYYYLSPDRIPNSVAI
# Method: as §1
# Elicition of Rat Peritoneal polymorphonuclear leukoytes (PMN)
# Male Sprague-Dawley rats (about 350 grams) were injected intraperitoneally the day before use with 8 ml of 12% sodium caseinate. The next day the animals were killed by CO2 asphyxiation and the peritoneal cavity lavaged twice with 20 ml of Hanks balanced salts containing 15 mM HEPES (pH 7.4), 1.4 mM Ca^++ and 0.7 mM Mg^++ (Hepes-Hanks). The suspensions were filtered through plastic mesh and centrifuged at […] for 5 minutes. The cells were resuspended in 50 ml Hepes-Hanks and recentrifuged. The PMN pellets were combined and suspended at 1.25×10^7 cells/ml.
# The cell suspension was then diluted 1:10, preincubated 5 minutes at 37° C. and distributed in 200 μl aliquots in the wells of 96 well microtiter plates. The wells had previously received samples of the compounds of the present invention, controls, etc., in 25 μl of 0.001% fatty acidfree BSA in Hepes-Hanks. The plates were incubated 2 minutes at 37° C. and then the cells were stimulated to produce LTB4 by the addition of 25 μl of 100 μM calcium ionophore, designated A23187. After 4 minutes at 37° C. the plates were frozen in dry ice.
# Radioimmunoassay (RIA) of LTB4
# The frozen plates were thawed to 4° C. and 25 μl aliquots removed to V well plates. Antibody to LTB4 (50 μl) was added and, after 15 minutes at room temperature, 50 μl of ^3 H-LTB4 was added and the plates were stored overnight at 4° C. to allow equilibration. The next day the "free" 3H-LTB4 was removed by adsorption to dextran coated charcoal [90 μl per well of a 4% charcoal suspension with 0.25% Dextran T-70 in 10 mM potassium phosphate (pH 7.3) containing lmM EDTA and 0.25 mM thimerasol] during a 10 minute ice temperature incubation. The charcoal was removed by a 10 minute centrifugation at 200 sg. Aliquots of the supernatant were counted in a Packard 460, analyzed in a Masscomp computer and the data drawn up as % inhibition of LTB4 production.
structure (smiles),measurement,setting,value
"COCOc1cc(-c2ccccc2)sc1-c1ccccc1 [Compound 12, 2,5-Diphenyl-3-(methoxymethoxy)-thiophene]",inhibition at 0.01 µg/mL,cyclooxygenase,28%
same,inhibition at 0.1 µg/mL,cyclooxygenase,0%
same,inhibition at 1 µg/mL,cyclooxygenase,100%
same,PMN5LO % inhibition,5-lipoxygenase; 0.11 μg/ml,40%
same,inhibition at 0.11 µg/mL,5-lipoxygenase; 0.11 μg/ml,31%
same,PMN5LO % inhibition,5-lipoxygenase; 0.33 μg/ml,84%
same,inhibition at 0.33 µg/mL,5-lipoxygenase; 0.33 μg/ml,74%
same,IC50,5-lipoxygenase,0.58 µM and 0.35 µM
CC(=O)Oc1cc(-c2cccs2)sc1-c1ccccc1,inhibition at 0.01 µg/mL,cyclooxygenase,0%
same,inhibition at 0.1 µg/mL,cyclooxygenase,0%
same,inhibition at 1 µg/mL,cyclooxygenase,0%
same,PMN5LO % inhibition,5-lipoxygenase; 0.11 μg/ml,51% and 100%
same,PMN5LO % inhibition,5-lipoxygenase; 0.33 μg/ml,52% and 100%
same,PMN5LO % inhibition,5-lipoxygenase; 1 μg/ml,74% and 100%
CC(=O)Oc1c(-c2ccccc2)sc(-c2ccccc2)c1-c1ccccc1 [Compound 7],inhibition at 0.01 µg/mL,cyclooxygenase,0%
same,inhibition at 0.1 µg/mL,cyclooxygenase,0%
same,inhibition at 1 µg/mL,cyclooxygenase,12%
same,inhibition at 5 µg/mL,cyclooxygenase; 5 μg/ml,76%
same,PMN5LO % inhibition,5-lipoxygenase; 1 μg/ml,10% and 0%
same,IC50,5-lipoxygenase,> 3 µM
"COc1ccc(-c2sc(-c3ccccc3)cc2OC(C)=O)cc1 [Compound 14, 3-Acetoxy-2-(4'-methoxyphenyl)-5-phenylthiophene]",inhibition at 0.1 µg/mL,cyclooxygenase,0%
same,PMN5LO % inhibition,5-lipoxygenase; 0.012 μg/ml,12%
same,inhibition at 0.012 µg/mL,5-lipoxygenase; 0.012 μg/ml,24%
same,PMN5LO % inhibition,5-lipoxygenase; 0.11 μg/ml,91% and 46%
same,PMN5LO % inhibition,5-lipoxygenase; 0.33 μg/ml,85%
same,inhibition at 0.33 µg/mL,5-lipoxygenase; 0.33 μg/ml,100%
same,PMN5LO % inhibition,5-lipoxygenase; 1 μg/ml,80%
same,inhibition at 1 µg/mL,5-lipoxygenase; 1 μg/ml,100%
same,IC50,5-lipoxygenase,0.08 µM
